Each structure is given as a SMILES string.

One assay has as its system HT-29 cells. Nature of the assay: Inhibition of cell proliferation (MTS), HT-29 cells. The format is cell-based. Particulars: Homo sapiens, HT-29, 72 h, HT-29 cells, 5000 cells/well, 72 h, MTS, absorbance 490 nm; read-out: HT29 IC50. Here is the method: (§1) MTS testing kit was purchased from Promega. The DMEM, RPMI-1640 and Fetal bovine serum were purchased from Gibco. Dimethyl sulfoxide (DMSO) was purchased from Sigma.
(§2) To investigate whether a compound is able to inhibit the activity of MEK in cells, a mechanism-based assay using A-375 and HT-29 cell was developed. In this assay, inhibition of MEK was detected by the inhibition of A-375 and HT-29 cells proliferation. A-375 and HT-29 cells were cultured in culture flasks to 40-80% confluence respectively in DMEM and RPMI-1640 plus 10% fetal bovine serum. Cells were collected and plated onto 96-well plates at desired cell density (A-375: 3000 cells/well; HT-29: 5000 cells/well). Plates were incubated overnight at 37° C., with 5% CO2 to adhere. Compounds were added to the plates. The final compound concentrations were […], 12.35, 4.12, 1.37, 0.46 and 0.15 nM, respectively. Place plates at 37° C., with 5% CO2 for 72 h. 10 μl MTS were added to each well and incubate the plates for exactly 2 hours. Absorbance was measured at 490 nm. […] was calculated using GraphPad Prism 5.0.

The test system of the next assay is A-375 cells. Description: Inhibition of cell proliferation (MTS), A-375 cells. The assay is classed as cell-based. Particulars: Homo sapiens, A-375, 72 h, A-375 cells, 3000 cells/well, 72 h, MTS, absorbance 490 nm; read-out: A375 IC50. The protocol: as §1, §2

With `Cn1c(=O)c(F)c(Nc2ccc(I)cc2F)c2c(=O)n(CC(O)CO)nc(-c3cccc(NS(C)(=O)=O)c3)c21` (stereo not shown) [Example 43, N-(3-(6-(2,3-dihydroxypropyl)-3-fluoro-4-(2-fluoro-4-iodophenylamino)-1-methyl-2,5-dioxo-1,2,5,6-tetrahydropyrido[2,3-d]pyridazin-8-yl)phenyl)methanesulfonamide], the half-inhibitory concentration (IC50) came to 4.6 nM in the assay with HT-29 cells and 3.6 nM in the assay with A-375 cells.

`CCS(=O)(=O)Nc1cccc(-c2nn(CC(O)CO)c(=O)c3c(Nc4ccc(I)cc4F)c(F)c(=O)n(C)c23)c1` (stereo not shown) [Example 44, N-(3-(6-(2,3-dihydroxypropyl)-3-fluoro-4-(2-fluoro-4-iodophenylamino)-1-methyl-2,5-dioxo-1,2,5,6-tetrahydropyrido[2,3-d]pyridazin-8-yl)phenyl)ethanesulfonamide]: the figures for the IC50 with HT-29 cells and in the assay on A-375 cells were 57.7 nM and 71.3 nM, respectively.

Turning to `CC(C)S(=O)(=O)Nc1cccc(-c2nn(CC(O)CO)c(=O)c3c(Nc4ccc(I)cc4F)c(F)c(=O)n(C)c23)c1` (stereo not shown) [Example 45, N-(3-(6-(2,3-dihydroxypropyl)-3-fluoro-4-(2-fluoro-4-iodophenylamino)-1-methyl-2,5-dioxo-1,2,5,6-tetrahydropyrido[2,3-d]pyridazin-8-yl)phenyl)propane-2-sulfonamide], the figures for the half-maximal inhibitory concentration (IC50) in the assay on HT-29 cells and in the assay with A-375 cells were 23.5 nM and 9.8 nM, respectively.

For the compound `Cn1c(=O)c(F)c(Nc2ccc(I)cc2F)c2c(=O)n(CC(O)CO)nc(-c3cccc(NS(=O)(=O)C4CC4)c3)c21` (stereo not shown) [Example 46, N-(3-(6-(2,3-dihydroxypropyl)-3-fluoro-4-(2-fluoro-4-iodophenylamino)-1-methyl-2,5-dioxo-1,2,5,6-tetrahydropyrido[2,3-d]pyridazin-8-yl)phenyl)cyclopropanesulfonamide], the IC50 with HT-29 cells stood at 24.2 nM; in the assay on A-375 cells, 68.9 nM.

Take `CN(c1cccc(-c2nn(C3CC3)c(=O)c3c(Nc4ccc(I)cc4F)c(F)c(=O)n(C)c23)c1)S(C)(=O)=O` [Example 47, N-(3-(6-cyclopropyl-3-fluoro-4-((2-fluoro-4-iodophenyl)amino)-1-methyl-2,5-dioxo-1,2,5,6-tetrahydropyrido[2,3-d]pyridazin-8-yl)phenyl)-N-methylmethanesulfonamide]: the 50% inhibitory concentration (IC50) worked out at 16.6 nM in the assay with HT-29 cells and 4.9 nM in the assay on A-375 cells.

As for `CC(C)S(=O)(=O)N(C)c1cccc(-c2nn(C3CC3)c(=O)c3c(Nc4ccc(I)cc4F)c(F)c(=O)n(C)c23)c1` [Example 48, N-(3-(6-cyclopropyl-3-fluoro-4-((2-fluoro-4-iodophenyl)amino)-1-methyl-2,5-dioxo-1,2,5,6-tetrahydropyrido[2,3-d]pyridazin-8-yl)phenyl)-N-methylpropane-2-sulfonamide], the IC50 in the assay with HT-29 cells turned out to be 13.2 nM; with A-375 cells, 3.4 nM.

Take `CN(c1cccc(-c2nn(C3CC3)c(=O)c3c(Nc4ccc(I)cc4F)c(F)c(=O)n(C)c23)c1)S(=O)(=O)C1CC1` [Example 49, N-(3-(6-cyclopropyl-3-fluoro-4-((2-fluoro-4-iodophenyl)amino)-1-methyl-2,5-dioxo-1,2,5,6-tetrahydropyrido[2,3-d]pyridazin-8-yl)phenyl)-N-methylcyclopropanesulfonamide]: the IC50 stood at 11.7 nM in the assay on HT-29 cells and 2.5 nM in the assay on A-375 cells.

Consider `CN(c1cccc(-c2nn(C)c(=O)c3c(Nc4ccc(I)cc4F)c(F)c(=O)n(C)c23)c1)S(C)(=O)=O` [Example 50, N-(3-(3-fluoro-4-((2-fluoro-4-iodophenyl)amino)-1,6-dimethyl-2,5-dioxo-1,2,5,6-tetrahydropyrido[2,3-d]pyridazin-8-yl)phenyl)-N-methylmethanesulfonamide], for which the IC50 in the assay with HT-29 cells was determined as 5.3 nM; with A-375 cells, 1.5 nM.

As a reminder, the IC50 is the point on the concentration scale where inhibition reaches its midpoint.
